Assay results: patent publication US6531598B1, “Naphthostyrils” (Hoffmann-La Roche Inc., priority 2001, dated 2003)

Key:
[1] = tested on: RKO colon carcinoma cell line; assay: Tetrazolium dye proliferation assay, RKO; assay type: cell-based; settings: Colon carcinoma cell, 120 h; MTT, 5 days post addition of test compound, 500 cell per well
Procedure: (§1) The cell lines used were MDA-MB435, a breast carcinoma dell line and RKO, a colon carcinoma cell line.
(§2) Teh estrogen receptor negative epithelial breast carcinoma line (MDA-MB435) was purchased from American Type Cell Culture Collection (ATCC; Rockville, Md.) and was grown in the medium recommended by ATCC. For analysis of the test compounds on growth of these cells, the cells were plated at 2000 cells per well in a 96-well tissue culture plate, and were incubated overnight at 37° C. with 5% CO2. The next day, the test compounds were dissolved in 100% dimethyl sulfoxide (DMSO) to yield a 10 mM stock solution. […] The compounds were then serially diluted in medium with 1.2% DMSO. One-fourth final volume of the diluted compounds was transferred to 96 well plates. Test compounds were assayed in duplicate. DMSO was added to a row of “control cells” such that the final concentration of DMSO in each well was 0.3%. Wells to which no cells were added served as the “blank.” Wells to which no inhibitor was added served as “no inhibitor control”. The plates were returned to the incubator, and 5 days post addition of test compound, were analyzed as described below.
(§3) 3-(4,5-Dimethylthiazole-2-yl)-2,5-diphenyl-2H-tetrazolium bromide (thiazolyl blue; MTT) was added to each well to yield a final concentration of 1 mglmL. The plates were then incubated at 37° C. for 3 hours. The plates were centrifuged at 1000 rpm for 5 minutes prior to aspiration of the MTT-containing medium. The MTT-containing medium was then removed and 100 μL 100% EtOH was added to each well to dissolve the resulting formazan metabolite. To ensure complete dissolution, plates were shaken for 15 minutes at room temperature. Absorbencies were read in a microliter plate reader (Molecular Dynamics) at a wavelength of 570 nm with a 650 nm reference. Percent inhibition was calculated by subtracting the absorbency of the blank (no cell) wells from all wells, then subtracting the division of the average absorbency of each test duplicate by the average of the controls from 1.00. Inhibitory concentrations (IC50) were determined from the linear regression of a plot of the logarithm of the concentration versus the percent inhibition.
The colon carcinoma line RKO was also obtained from the ATCC and was tested according to the same protocol provided above except that the cell line RKO was plated at 500 cell per well.

human Cyclin E/CDK2 = target: T1, human Cyclin E/CDK2 (Homo sapiens, UniProt P24941); assay: CDK2 FlashPlate Assay; assay type: biochemical; settings: inhibition of Rb phosphorylation, 33P-ATP, 25 minutes at room temperature
T1 construct: made in house; host or cells: insect cells
Procedure: To determine inhibition of CDK2 activity, purified recombinant retinoblastoma (Rb) protein was coated on 96 well FlashPlates (New England Nuclear, Boston, Mass.). […] Recombinant active human Cyclin E/CDK2 complexes were partially purified from extracts of insect cells. […] Plates were incubated for 25 minutes at room temperature with shaking, then washed and counted in the Topcount scintillation counter (Packard Instrument Co., Downers Grove, Ill.). Dilutions of test compounds were tested in duplicate in each assay. The percent inhibition of Rb phosphorylation, which is a measure of the inhibition of CDK2 activity, was determined according to the following formula: [formula]
where “test compound” refers to the average counts per minute of the test duplicates, “nonspecific” refers to the average counts per minute when no Cyclin E/CDK2 was added, and “total” refers to the average counts per minute when no compound was added.

[2] = tested on: MDA-MB435 breast carcinoma cell line; assay: Tetrazolium dye proliferation assay, MDA-MB435; assay type: cell-based; settings: Homo sapiens, MDA-MB-435, 120 h; MTT, 5 days post addition of test compound, 2000 cells per well
Procedure: as §1, §2, §3

IC50 [1]: ≤ 10 µM | IC50 (human Cyclin E/CDK2): ≤ 10 µM | IC50 [2]: ≤ 10 µM
SMILES: O=C1Nc2ccc(F)c3ccc(-c4ccc[nH]4)c1c23 [Example 7, 6-Fluoro-3-(1H-pyrrol-2-yl)-1H-benzo[cd]indol-2-one]
